Results from US10259812B2, “CGRP receptor antagonists” (Heptares Therapeutics Limited, priority 2015, dated 2019).
In brackets after ≈: the same amount, converted by molar mass.

How the values were obtained:
human CGRP receptor = molecular target: T1, human CGRP receptor (Homo sapiens, UniProt O60894+Q16602); test: cAMP functional assay (HTRF) in SK-N-MC cells; assay type: cell-based; settings: read-out: pKb average (converted)
T1 construct: The human neuroblastoma cell line SK-N-MC endogenously expressing the human CGRP receptor; endogenous in cells; host or cells: SK-N-MC human neuroblastoma cells
Procedure: cAMP production following receptor activation was determined using the Homogeneous Time-Resolved Fluorescence (HTRF) cAMP dynamic-2 assay (Cisbio, France). The human neuroblastoma cell line SK-N-MC endogenously expressing the human CGRP receptor was seeded at a density of 12,500 cells/well in solid walled 96 well half area plates (Costar, Catalog Number 3688, Corning Life Sciences, Germany). After 16 h incubation at 37° C. media was removed and cells were incubated at 37° C. for 30 min in serum free media containing 500 μM IBMX (Tocris, Abingdon, UK, Catalog Number 2845) and increasing concentrations of test antagonist. Following this cells were challenged with an EC80 concentration of human CGRP (0.3 nM) for a further 30 min at 37° C. and then cAMP production was determined as manufacturer's instructions before plates were read on a PheraStar fluorescence plate reader (BMG LabTech, Germany). IC50 values were derived from the inhibition curve. The pIC50 values (where pIC50=−log10 IC50) were converted to a functional pKb value using a modified Cheng-Prussoff equation where Kd=agonist EC50 and L hot=agonist challenge concentration. The pKb values of certain compounds of the invention are detailed in Table 3.

[1] = Thermodynamic solubility profiling; assay type: physicochemical; settings: 24 h at rt
Procedure: A 50 mM DMSO stock solution of test compound was prepared, and from this, a working solution of 1 mM was prepared by dilution with DMSO. The UV absorbance of working solution was scanned from 220 nm to 1000 nm to identify the wavelength maxima of test compound. The 1 mM working solution was then serially diluted in DMSO to different concentrations to determine linearity/calibration curve. […] The resulting solution was then kept on a RotoSpin shaker at 50 rpm for 24 h at rt before the solution was filtered using 0.45 micron PVDF injector filters in order to remove the insoluble fraction of the compound. Subsequently, 150 uL of the filtrate is taken for quantification using a UV spectrophotometer, acquiring the optical density of standard solutions and test compound at the same wavelength maxima. From the optical density of test compound the thermodynamic solubility is calculated using the linearity/calibration curve and expressed as micromolar (μM). Solubility profiles of certain compounds of the invention are detailed in Table 6.

[2] = Pharmacokinetic profiling in rat; assay type: in vivo, male Sprague Dawley rats; settings: male, Sprague Dawley, plasma, inhaled or intranasal
Procedure: Prior to IN dosing rats were anaesthetised with an intramuscular dose of 25-30 mg/kg ketamine cocktail (ketamine, xylazine hydrochloride and acepromazine maleate in saline) and the dose is introduced over 20-30 s via a polyethylene PE-10 tube inserted approximately 5 mm into the nasal cavity of the rat.
(§1) Following dosing by the routes above blood samples were taken at several time points (typically pre-dose, 0.083, 0.25, 0.5 1, 2, 4, 8 and 24 h) via serial tail vein bleeds (rat) or cephalic or saphenous vein (monkey) from the animal and centrifuged to separate plasma for analysis by LC/MS/MS assay. WinNonlin v6.2 statistics software (Pharsight Corporation, California, USA) was used to generate pharmacokinetic parameters using the non-compartmental model.

[3] = Pharmacokinetic profiling in cynomolgus monkey; assay type: in vivo, male Cynomolgus Monkeys; settings: male, plasma, acidified saline
Procedure: as §1

[4] = molecular target: T2, Human CGRP receptors (consisting of CRLR and RAMP1) (Homo sapiens, UniProt O60894+Q16602); test: Radioligand binding assay (3H-telcagepant displacement); settings: 0.5 nM 3H-telcagepant, Sf21 cell membranes, Ki by Cheng-Prussoff; read-out: pKi average (converted)
T2 construct: made in house; host or cells: Sf21 insect cells (baculovirus, pFastBac dual vector); membrane homogenates
Procedure: Human Calcitonin Receptor Like Receptor (CRLR) and human RAMP1 were cloned into Invitrogen's (ThermoFisher Scientific, UK) pFastBac dual expression vector. Transposition of CRLR/RAMP1 DNA was performed using Invitrogen's Bac-to-Bac Baculovirus Expression Systems. P0 baculovirus was generated by transfecting SF9 cells with bacmid DNA using Cellfectin® II transfection reagent (ThermoFisher Scientific, UK, catalog number 10362-100). Following P0 generation P1 virus was then generated ready for large scale infection and membrane preparation. Sf21 cells were grown in expression medium ESF921 (Expression Systems, USA, catalog number 96-001-01) supplemented with 10% heat-inactivated FBS and 1% Pen/Strep and were infected at a cell density of 2.5×10^6 cells/mL and an MOI of 2. Expression was carried out over 48 h in a shaking incubator set at 27° C. The cell culture was centrifuged at 2,500 rcf for 10 min at 4° C. The pellets were resuspended in cold PBS supplemented with Roche's Complete EDTA-free protease inhibitor cocktail tablets (Roche Applied Sciences, catalog number 05056489001), 1 mM PMSF and 1 mM EDTA. The resuspended cell paste was then centrifuged at 3,273 rcf for 12 min at 4° C. The supernatant was discarded and the pellet frozen at −80° C. The cell pellet from a 4 L culture was resuspended in buffer containing 50 mM Hepes pH 7.5, 150 mM NaCl, 8 Roche EDTA-free protease inhibitor cocktail tablets and 1 mM PMSF. The suspension was left stirring at rt for 1 h and then homogenised for 90 s at 9,500 rpm using a VDI 25 (VWR, USA) homogeniser. The cells were then lysed using a Microfluidizer processor M-110L Pneumatic (Microfluidics, USA). After lysis, the mixture was homogenised for 90 s at 9,500 rpm and then centrifuged at 335 rcf for 10 min. The supernatant was then further ultra-centrifuged at 42,000 rpm for 90 min. […]
Human CGRP receptors (consisting of CRLR and RAMP1) expressed in insect Sf21 cell membrane homogenates were re-suspended in the binding buffer (10 mM HEPES, pH 7.4, 5 mM MgCl2, 0.2% BSA) to a final assay concentration of […]. Saturation isotherms were determined by the addition of various concentrations of ^3H-telcagepant (Ho et al, The Lancet, 2008, 372, 2115) (in a total reaction volume of 250 μL) for 60 min at rt. […] Non-specific binding (NSB) was measured in the presence of 10 nM MK-3207 hydrochloride (CAS No. 957116-20-0). Radioactivity on the filter was counted (1 min) on a microbeta counter after addition of 50 μL of scintillation fluid. […] IC50 values were derived from the inhibition curve and the affinity constant (Ki) values were calculated using the Cheng-Prussoff equation (Cheng et al, Biochem. Pharmacol. 1973, 22, 3099-3108). […]

[5] = aqueous buffer, thermodynamic from solid, pH 6 (Sodium Phosphate Buffer)
[6] = aqueous buffer, thermodynamic from solid, pH 7.4 (PBS buffer)

T2 sequence (Q16602 23-461): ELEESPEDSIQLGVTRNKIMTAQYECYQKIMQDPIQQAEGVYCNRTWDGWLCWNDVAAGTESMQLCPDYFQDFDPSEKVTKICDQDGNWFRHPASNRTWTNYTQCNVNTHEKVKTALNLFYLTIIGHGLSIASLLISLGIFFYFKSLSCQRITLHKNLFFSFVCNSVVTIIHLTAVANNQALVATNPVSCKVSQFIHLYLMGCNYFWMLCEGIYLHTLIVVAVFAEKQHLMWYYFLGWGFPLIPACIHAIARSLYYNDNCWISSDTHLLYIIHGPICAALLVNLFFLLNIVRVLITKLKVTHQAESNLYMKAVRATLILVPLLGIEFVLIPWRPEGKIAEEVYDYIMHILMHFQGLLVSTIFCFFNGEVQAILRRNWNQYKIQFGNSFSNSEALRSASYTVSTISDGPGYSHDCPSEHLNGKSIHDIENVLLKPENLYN
T2 sequence (O60894 27-148): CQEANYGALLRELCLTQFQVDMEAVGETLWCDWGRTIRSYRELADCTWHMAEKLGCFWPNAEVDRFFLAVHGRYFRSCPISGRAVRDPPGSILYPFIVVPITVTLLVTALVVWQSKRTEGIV
T1 sequence (Q16602 23-461): as the sequence (Q16602 23-461) above
T1 sequence (O60894 27-148): as the sequence (O60894 27-148) above

SMILES	Kb (human CGRP receptor) [pM]	solubility thermodynamic at 24 h [1, 5] [µM]	bioavailability [2] [%]	clearance ([3]; Cynomolgus monkey iv, 1 mg/kg) [mL/min/kg]	bioavailability ([3]; Cynomolgus monkey sc, 0.5 mg/kg) [%]	solubility thermodynamic at 24 h [1, 6] [µM]	Ki [4] [pM]	solubility thermodynamic at 24 h ([1]; pH 6 (Sodium Phosphate Buffer)) [µM]	solubility thermodynamic at 24 h ([1]; pH 7.4 (PBS buffer)) [µM]
Cc1cc(C[C@@H](NC(=O)N2CCC(n3c(=O)[nH]c4ncccc43)CC2)C(=O)N2CCC3(CCN(C4CCNCC4)CC3)C2)cc2cn[nH]c12 [Example 1, N-{(2R)-3-(7-methyl-1H-indazol-5-yl)-1-oxo-1-[8-(piperidin-4-yl)-2,8-diazaspiro[4.5]dec-2-yl]propan-2-yl}-4-(2-oxo-2,3-dihydro-1H-imidazo[4,5-b]pyridin-1-yl)piperidine-1-carboxamide]	251	1030 (≈ 688 µg/mL)							
CN[C@H](C)C(=O)N1CCC2(CC1)CCN(C(=O)[C@@H](Cc1cc(C)c3[nH]ncc3c1)NC(=O)N1CCC(c3cc4ccccc4[nH]c3=O)CC1)C2 [Example 2, N-[(2R)-1-[8-(N-methyl-D-alanyl)-2,8-diazaspiro[4.5]dec-2-yl]-3-(7-methyl-1H-indazol-5-yl)-1-oxopropan-2-yl]-4-(2-oxo-1,2-dihydroquinolin-3-yl)piperidine-1-carboxamide]	1260	1290 (≈ 876 µg/mL)	20	8	100	800 (≈ 545 µg/mL)			
CN[C@H](C)C(=O)N1CCC2(CC1)CCN(C(=O)[C@@H](Cc1cc(C)c3[nH]ncc3c1)NC(=O)N1CCC(n3c(=O)[nH]c4ncccc43)CC1)C2 [Example 3, N-[(2R)-1-[8-(N-methyl-D-alanyl)-2,8-diazaspiro[4.5]dec-2-yl]-3-(7-methyl-1H-indazol-5-yl)-1-oxopropan-2-yl]-4-(2-oxo-2,3-dihydro-1H-imidazo[4,5-b]pyridin-1-yl)piperidine-1-carboxamide]	631	1430 (≈ 961 µg/mL)				1550 (≈ 1040 µg/mL)	79.4		
Cc1cc(C[C@@H](NC(=O)N2CCC(N3Cc4ccccc4NC3=O)CC2)C(=O)N2CCC3(CCN(C4CCNCC4)CC3)C2)cc2cn[nH]c12 [Example 4, N-{(2R)-3-(7-methyl-1H-indazol-5-yl)-1-oxo-1-[8-(piperidin-4-yl)-2,8-diazaspiro[4.5]dec-2-yl]propan-2-yl}-4-(2-oxo-1,4-dihydroquinazolin-3(2H)-yl)piperidine-1-carboxamide]	794	1350 (≈ 918 µg/mL)				1150 (≈ 783 µg/mL)	79.4		
CN[C@H](C)C(=O)N1CCC2(CC1)CCN(C(=O)[C@@H](Cc1cc(C)c3[nH]ncc3c1)NC(=O)N1CCC3(CC1)OC(=O)Nc1ncccc13)C2 [Example 5, N-[(2R)-1-[8-(N-methyl-D-alanyl)-2,8-diazaspiro[4.5]dec-2-yl]-3-(7-methyl-1H-indazol-5-yl)-1-oxopropan-2-yl]-2′-oxo-1′,2′-dihydro-1H-spiro[piperidine-4,4′-pyrido[2,3-d][1,3]oxazine]-1-carboxamide]	501	1580 (≈ 1060 µg/mL)				1460 (≈ 979 µg/mL)	100		

Now from value to molecule:

Kb (human CGRP receptor) [pM]	solubility thermodynamic at 24 h [1, 5] [µM]	bioavailability [2] [%]	clearance ([3]; Cynomolgus monkey iv, 1 mg/kg) [mL/min/kg]	bioavailability ([3]; Cynomolgus monkey sc, 0.5 mg/kg) [%]	solubility thermodynamic at 24 h [1, 6] [µM]	Ki [4] [pM]	solubility thermodynamic at 24 h ([1]; pH 6 (Sodium Phosphate Buffer)) [µM]	solubility thermodynamic at 24 h ([1]; pH 7.4 (PBS buffer)) [µM]	SMILES
631	1500 (≈ 1020 µg/mL)				1570 (≈ 1070 µg/mL)				CN[C@H](C)C(=O)N1CCC2(CC1)CCN(C(=O)[C@@H](Cc1cc(C)c3[nH]ncc3c1)NC(=O)N1CCC(N3Cc4ccccc4NC3=O)CC1)C2 [Example 6, N-[(2R)-1-[8-(N-methyl-D-alanyl)-2,8-diazaspiro[4.5]dec-2-yl]-3-(7-methyl-1H-indazol-5-yl)-1-oxopropan-2-yl]-4-(2-oxo-1,4-dihydroquinazolin-3(2H)-yl)piperidine-1-carboxamide]
398	3630 (≈ 2400 µg/mL)				2160 (≈ 1430 µg/mL)	50.1			Cc1cc(C[C@@H](NC(=O)N2CCC(n3c(=O)[nH]c4ncccc43)CC2)C(=O)N2CCC3(CCN(c4ccncc4)CC3)C2)cc2cn[nH]c12 [Example 7, N-{(2R)-3-(7-methyl-1H-indazol-5-yl)-1-oxo-1-[8-(pyridin-4-yl)-2,8-diazaspiro[4.5]dec-2-yl]propan-2-yl}-4-(2-oxo-2,3-dihydro-1H-imidazo[4,5-b]pyridin-1-yl)piperidine-1-carboxamide]
							150 (≈ 130 µg/mL)	431 (≈ 375 µg/mL)	NCCCC[C@H](NC(=O)[C@@H](Cc1cc(Br)c(O)c(Br)c1)NC(=O)N1CCC(N2Cc3ccccc3NC2=O)CC1)C(=O)N1CCN(c2ccncc2)CC1 [olcegepant, reference compound]
